Source: patent publication US10961205B2, “1,2,4-oxadiazole derivatives as immunomodulators” (Aurigene Discovery Technologies Limited, priority 2013, dated 2021)

Test system: PD-L1
Experiment: Rescue of mouse splenocyte proliferation in presence of recombinant PD-L1 (CFSE proliferation assay)
Format: cell-based
Conditions: anti-CD3/CD28 stimulated mouse splenocytes in presence of ligand (PDL-1), 72 h, stimulated splenocyte proliferation normalised as 100%
Experimental: Rescue of Mouse Splenocyte Proliferation in Presence of Recombinant PD-L1/PD-L2
Recombinant mouse PD-L1 (rm-PDL-1, cat no: 1019-B7-100 & rh-PDL-1, cat no: 156-B7-100, R&D Systems) were used as the source of PD-L1.
Mouse splenocytes harvested from 6-8 weeks old C57 BL6 mice; RPMI 1640 (GIBCO, Cat #11875); DMEM with high glucose (GIBCO, Cat #D6429); Fetal Bovine Serum [Hyclone, Cat #SH30071.03]; Penicillin (10000 unit/mL)-Streptomycin(10,000 μg/mL) Liquid (GIBCO, Cat #15140-122); MEM Sodium Pyruvate solution 100 mM (100×), Liquid (GIBCO, Cat #11360); Nonessential amino acid (GIBCO, Cat #11140); L-Glutamine (GIBCO, Cat #25030); Anti-CD3 antibody (eBiosciences—16-0032); Anti-CD28 antibody (eBiosciences—16-0281); ACK lysis buffer (1 mL) (GIBCO, Cat #-A10492); Histopaque (density-1.083 gm/mL) (SIGMA 10831); Trypan blue solution (SIGMA-T8154); 2 mL Norm Ject Luer Lock syringe-(Sigma 2014-12); 40 μm nylon cell strainer (BD FALCON 35230); Hemacytometer (Bright line-SIGMA Z359629); FACS Buffer (PBS/0.1% BSA): Phosphate Buffered Saline (PBS) pH 7.2 (HiMedia TS1006) with 0.1% Bovine Serum Albumin (BSA) (SIGMA A7050) and sodium azide (SIGMA 08591); 5 mM stock solution of CFSE: CFSE stock solution was prepared by diluting lyophilized CFSE with 180 μL of Dimethyl sulfoxide (DMSO C2H6SO, SIGMA-D-5879) and aliquoted in to tubes for further use. Working concentrations were titrated from 10 μM to 1 μM. (eBioscience—650850-85); 0.05% Trypsin and 0.02% EDTA (SIGMA 59417C); 96-well format ELISA plates (Corning CLS3390); BD FACS caliber (E6016); Recombinant mouse B7-H1/PDL1 Fc Chimera, (rm-PD-L1 cat no: 1019-B7-100).
Splenocytes harvested in a 50 mL falcon tube by mashing mouse spleen in a 40 μm cell strainer were further treated with 1 mL ACK lysis buffer for 5 min at room temperature. After washing with 9 mL of RPMI complete media, cells were re-suspended in 3 mL of 1×PBS in a 15 mL tube. 3 mL of Histopaque was added carefully to the bottom of the tube without disturbing overlaying splenocyte suspension. After centrifuging at 800×g for 20 min at room temperature, the opaque layer of splenocytes was collected carefully without disturbing/mixing the layers. Splenocytes were washed twice with cold 1×PBS followed by total cell counting using Trypan Blue exclusion method and used further for cell based assays.
Splenocytes were cultured in RPMI complete media (RPMI+10% fetal bovine serum+1 mM sodium pyruvate+10,000 units/mL penicillin and 10,000 μg/mL streptomycin) and maintained in a CO2 incubator with 5% CO2 at 37° C.
CFSE is a dye that passively diffuses into cells and binds to intracellular proteins. 1×10^6 cells/mL of harvested splenocytes were treated with 5 μM of CFSE in pre-warmed 1×PBS/0.1% BSA solution for 10 min at 37° C. Excess CFSE was quenched using 5 volumes of ice-cold culture media to the cells and incubated on ice for 5 min. CFSE labelled splenocytes were further given three washes with ice cold complete RPMI media. CFSE labelled 1×10^5 splenocytes added to wells containing either MDA-MB231 cells (1×10^5 cells cultured in high glucose DMEM medium) or recombinant […] PDL-1 (100 ng/mL) and test compounds. Splenocytes were stimulated with anti-mouse CD3 and anti-mouse CD28 antibody (1 μg/mL each), and the culture was further incubated for 72 h at 37° C. with 5% CO2. Cells were harvested and washed thrice with ice cold FACS buffer and % proliferation was analyzed by flow cytometry with 488 nm excitation and 521 nm emission filters.
Percent splenocyte proliferation was analyzed using cell quest FACS program and percent rescue of splenocyte proliferation by compound was estimated after deduction of % background proliferation value and normalising to % stimulated splenocyte proliferation (positive control) as 100%.
Stimulated splenocytes: Splenocytes+anti-CD3/CD28 stimulation
Background proliferation: Splenocytes+anti-CD3/CD28+PD-L1
Compound proliferation: Splenocytes+anti-CD3/CD28+PD-L1+Compound […]

For `NC(=O)C[C@H](N)c1nc([C@@H](N)CO)no1` [Compound 1], the “Percent rescue of splenocyte proliferation @ 100 nM compound concentration” value (shortened to “Percent rescue”) was 93%.
For `NC(=O)C[C@H](NC(=O)N[C@@H](CO)C(=O)O)c1nc([C@@H](N)CO)no1` [Compound 2], the “Percent rescue” value was 50%.
For `CC(O)[C@H](NC(=O)N[C@@H](CC(N)=O)c1nc([C@@H](N)CO)no1)C(=O)O` (some centres unmarked) [Compound 4], the “Percent rescue” value was 89%.
For `CC(O)[C@@H](N)c1noc([C@@H](CC(N)=O)NC(=O)N[C@H](CO)C(=O)O)n1` (some centres unmarked) [Compound 5], the “Percent rescue” value was 67.6%.
`COC(=O)[C@@H](NC(=O)N[C@@H](CC(N)=O)c1nc([C@@H](N)CO)no1)C(C)O` (some centres unmarked) [Compound 6] was tested, and the “Percent rescue” value was 84%.
With `CC(O)[C@H](NC(=O)N[C@@H](CC(N)=O)c1nc([C@@H](N)CO)no1)C(N)=O` (some centres unmarked) [Compound 7] the “Percent rescue” value was 55%.
For `N[C@@H](CO)c1noc([C@H](CCC(=O)O)NC(=O)N[C@@H](CO)C(=O)O)n1` [Compound 8], the “Percent rescue” value was 67%.
In the case of `CCCC(=O)N[C@@H](CO)c1noc([C@H](CC(N)=O)NC(=O)N[C@H](C(=O)O)C(C)O)n1` (some centres unmarked) [Compound 9], the “Percent rescue” value is reported as 34%.
For `COC[C@H](N)c1noc([C@H](CC(N)=O)NC(=O)N[C@H](C(=O)O)C(C)O)n1` (some centres unmarked) [Compound 10], the “Percent rescue” value was 49%.
With `CC(O)[C@@H](NC(=O)N[C@@H](CC(N)=O)c1nc([C@@H](N)CO)no1)C(=O)O` (some centres unmarked) [Compound 11] the “Percent rescue” value was 90%.
`CC(O)[C@H](NC(=O)N[C@@H](CC(N)=O)c1nc([C@H](N)CO)no1)C(=O)O` (some centres unmarked) [Compound 12] was tested, and the “Percent rescue” value was 64%.
For `CC(O)[C@H](NC(=O)N[C@H](CC(N)=O)c1nc([C@@H](N)CO)no1)C(=O)O` (some centres unmarked) [Compound 13], the “Percent rescue” value was 74%.
For `CC(O)[C@@H](NC(=O)N[C@H](CC(N)=O)c1nc([C@H](N)CO)no1)C(=O)O` (some centres unmarked) [Compound 15], the “Percent rescue” value was 83%.
For `CC(O)[C@@H](NC(=O)N[C@@H](CC(N)=O)c1nc([C@H](N)CO)no1)C(=O)O` (some centres unmarked) [Compound 16], the “Percent rescue” value was 72%.
`CC(O)[C@H](NC(=O)N[C@H](CC(N)=O)c1nc([C@H](N)CO)no1)C(=O)O` (some centres unmarked) [Compound 17] was tested, and the “Percent rescue” value was 55%.
With `CC(O)[C@@H](NC(=O)N[C@H](CC(N)=O)c1nc([C@@H](N)CO)no1)C(=O)O` (some centres unmarked) [Compound 18] the “Percent rescue” value was 64%.
For `CC(O)[C@H](NC(=O)N[C@@H](CCC(=O)O)c1nc([C@@H](N)CO)no1)C(=O)O` (some centres unmarked) [Compound 19], the “Percent rescue” value was 88%.
`CC(O)[C@H](NC(=O)N[C@@H](CCC(N)=O)c1nc([C@@H](N)CO)no1)C(=O)O` (some centres unmarked) [Compound 20] was tested, and the “Percent rescue” value was 69%.
With `NC(=O)CC[C@H](NC(=O)N[C@@H](CO)C(=O)O)c1nc([C@@H](N)CO)no1` [Compound 21] the “Percent rescue” value was 47%.
`CC(O)[C@H](N)c1noc([C@H](CCC(N)=O)NC(=O)N[C@@H](CO)C(=O)O)n1` (some centres unmarked) [Compound 22] was tested, and the “Percent rescue” value was 55%.
In the case of `CC(O)[C@H](NC(=O)N[C@@H](CCC(N)=O)c1nc([C@@H](N)C(C)O)no1)C(=O)O` (some centres unmarked) [Compound 23], the “Percent rescue” value is reported as 74%.
`CC(O)[C@H](NC(=O)N[C@@H](CC(=O)O)c1nc([C@@H](N)CO)no1)C(=O)O` (some centres unmarked) [Compound 24] was tested, and the “Percent rescue” value was 52%.
With `N[C@@H](CO)c1noc([C@H](CC(=O)O)NC(=O)N[C@@H](CO)C(=O)O)n1` [Compound 25] the “Percent rescue” value was 91%.
